In ChEMBL document CHEMBL1201862, “PubChem BioAssay data set” (2004):
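Dose response: 5 concentrations. Exposure: 48 h. Format: 96-well plates. Endpoint: linear interpolation; highest concentration if not reached. Here, GI50 denotes the concentration required for 50% inhibition of growth.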 Calls of active or inactive are those of the source. No stated cut-off is given here; in the data, active = GI50 up to about 1.1 µM and inactive = higher.

What was measured:
Test in all cases: DTP human tumour cell line panel, 48 h
[1] = system: 786-0
[2] = system: A498
[3] = system: A549
[4] = system: ACHN
[5] = system: CAKI-1
[6] = system: CCRF-CEM
[7] = system: COLO 205
[8] = system: DLD-1
[9] = system: DMS-114
[10] = system: DMS-273
[11] = system: EKVX
[12] = system: HCC 2998
[13] = system: HCT-116
[14] = system: HCT-15
[15] = system: HL-60
[16] = system: HOP-18
[17] = system: HOP-62
[18] = system: HOP-92
[19] = system: IGROV-1
[20] = system: K562
[21] = system: KM-20L2
[22] = system: KM12
[23] = system: LOX IMVI
[24] = system: LXFL 529
[25] = system: M14
[26] = system: M19-MEL
[27] = system: MOLT-4
[28] = system: Malme-3M
[29] = system: NCI-H226
[30] = system: NCI-H23
[31] = system: NCI-H460
[32] = system: NCI-H522
[33] = system: OVCAR-3
[34] = system: OVCAR-4
[35] = system: OVCAR-5
[36] = system: OVCAR-8
[37] = system: RPMI-8226
[38] = system: RXF 393
[39] = system: RXF 631
[40] = system: SF-268
[41] = system: SF-295
[42] = system: SF-539
[43] = system: SK-MEL-28
[44] = system: SK-MEL-2
[45] = system: SK-MEL-5
[46] = system: SK-OV-3
[47] = system: SN12C
[48] = system: SNB-19
[49] = system: SNB-75
[50] = system: SNB-78
[51] = system: SR
[52] = system: SW-620
[53] = system: TK-10
[54] = system: U-251
[55] = system: UACC-257
[56] = system: UACC-62
[57] = system: UO-31
[58] = system: XF498

CN(C)C(=O)/N=c1\ss/c(=N\C(=S)N(C)C)n1-c1ccccc1
GI50 [1]: 19.6 µM (inactive)
GI50 [2]: 56.8 µM (inactive)
GI50 [3]: 35.5 µM (inactive)
GI50 [4]: 23 µM (inactive)
GI50 [5]: > 100 µM (inactive)
GI50 [6]: 0.184 µM (active)
GI50 [7]: 35.3 µM (inactive)
GI50 [8]: 26.6 µM (inactive)
GI50 [9]: 10.3 µM (inactive)
GI50 [10]: 0.125 µM (active)
GI50 [11]: > 63.5 µM (inactive)
GI50 [12]: > 100 µM (inactive)
GI50 [13]: 13.5 µM (inactive)
GI50 [14]: 15 µM
GI50 [15]: 8.34 µM (inactive)
GI50 [16]: > 10 µM (inactive)
GI50 [17]: > 68.9 µM (inactive)
GI50 [18]: > 51.4 µM (inactive)
GI50 [19]: 29.4 µM (inactive)
GI50 [20]: 0.294 µM (active)
GI50 [21]: 54 µM (inactive)
GI50 [22]: 57.5 µM (inactive)
GI50 [23]: 3.53 µM (inactive)
GI50 [24]: 7.55 µM (inactive)
GI50 [25]: 20 µM (inactive)
GI50 [26]: 31.9 µM (inactive)
GI50 [27]: 7.78 µM (inactive)
GI50 [28]: 42.9 µM (inactive)
GI50 [29]: 27.2 µM (inactive)
GI50 [30]: 18.7 µM (inactive)
GI50 [31]: 17 µM (inactive)
GI50 [32]: < 0.01 µM (active)
GI50 [33]: 21.2 µM (inactive)
GI50 [34]: 16.8 µM (inactive)
GI50 [35]: > 90.2 µM (inactive)
GI50 [36]: 20.9 µM (inactive)
GI50 [37]: 17 µM (inactive)
GI50 [38]: 38.4 µM (inactive)
GI50 [39]: 36.1 µM (inactive)
GI50 [40]: 25.6 µM (inactive)
GI50 [41]: 40.2 µM (inactive)
GI50 [42]: 35.4 µM (inactive)
GI50 [43]: 18.1 µM (inactive)
GI50 [44]: > 57 µM (inactive)
GI50 [45]: 29.6 µM (inactive)
GI50 [46]: > 100 µM (inactive)
GI50 [47]: 45.8 µM (inactive)
GI50 [48]: 35.6 µM (inactive)
GI50 [49]: 13.8 µM (inactive)
GI50 [50]: 65.8 µM (inactive)
GI50 [51]: 10 µM (inactive)
GI50 [52]: 28.3 µM (inactive)
GI50 [53]: 31.4 µM (inactive)
GI50 [54]: 27 µM (inactive)
GI50 [55]: 15.5 µM (inactive)
GI50 [56]: 14.4 µM (inactive)
GI50 [57]: 33 µM (inactive)
GI50 [58]: 43.7 µM (inactive)
